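Tested at 5 concentrations; 48 h exposure; 96-well plates; endpoints linearly interpolated, else capped at highest concentration. TGI is the concentration that stops growth completely.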
Assays:
Assay in all cases: inhibition of tumour cell growth, NCI panel, 48 h
786-0 renal = tested on: 786-0 renal
COLO 205 colon = tested on: COLO 205 colon
HCC-2998 colon = tested on: HCC-2998 colon
HCT-116 colon = tested on: HCT-116 colon
OVCAR-5 ovarian = tested on: OVCAR-5 ovarian
SF-268 CNS = tested on: SF-268 CNS
SF-295 CNS = tested on: SF-295 CNS
SK-MEL-28 melanoma = tested on: SK-MEL-28 melanoma
SK-OV-3 ovarian = tested on: SK-OV-3 ovarian
SN12C renal = tested on: SN12C renal
SNB-75 CNS = tested on: SNB-75 CNS
SR leukemia = tested on: SR leukemia
UACC-257 melanoma = tested on: UACC-257 melanoma
DU-145 prostate = tested on: DU-145 prostate

Structure (SMILES) | TGI (786-0 renal) [µM] | TGI (COLO 205 colon) [µM] | TGI (HCC-2998 colon) [µM] | TGI (HCT-116 colon) [µM] | TGI (OVCAR-5 ovarian) [µM] | TGI (SF-268 CNS) [µM] | TGI (SF-295 CNS) [µM] | TGI (SK-MEL-28 melanoma) [µM] | TGI (SK-OV-3 ovarian) [µM] | TGI (SN12C renal) [µM] | TGI (SNB-75 CNS) [µM] | TGI (SR leukemia) [µM] | TGI (UACC-257 melanoma) [µM] | TGI (DU-145 prostate) [µM]
Oc1ccc(-c2c3ccccc3c(-c3ccc(O)cc3)c3ccccc23)cc1 | > 100 | > 100 | > 100 | > 100 | > 100 | > 100 | > 100 | > 100 | > 100 | > 100 | > 100 | > 100 | > 100 | –
CCCCn1c(-c2ccccc2)cs/c1=N\N=C1C=C(C(C)(C)C)C(=O)C(C(C)(C)C)=C1 | > 100 | > 100 | > 100 | > 100 | > 100 | > 100 | > 100 | – | – | > 100 | – | > 100 | > 100 | –
C/C(=N\Nc1ccccc1)c1sc(-c2nc(C)c(/C(C)=N/Nc3ccccc3)s2)nc1C | > 83.1 | 25.6 | 19.9 | > 100 | > 100 | > 64.6 | > 34.9 | > 85.8 | > 100 | > 100 | > 77.1 | > 100 | > 70.4 | –
CC1CC(=O)Nc2ccc(Cl)cc2N1C(=O)CN1CCC(CCCCN(C)C)CC1 (stereo not given) | > 100 | > 100 | > 100 | > 100 | > 100 | > 100 | > 100 | > 100 | > 100 | > 100 | – | > 100 | > 100 | –
Nc1cn(C2OC(CC(c3ccccc3)(c3ccccc3)c3ccccc3)C(O)C2O)c(=O)[nH]c1=O (stereo not given) | 59.1 | 30.3 | 64.4 | 32 | > 100 | > 100 | 99.7 | 81.7 | 98.2 | 49.4 | > 100 | 39.9 | 52.3 | –
C/C=C/CC(C(=O)OCC)(N(C)C(=O)OC(C)(C)C)S(=O)(=O)c1ccc(C)cc1 (stereo not given) | > 100 | > 100 | – | > 100 | > 100 | > 100 | > 100 | > 100 | – | > 100 | – | – | > 100 | > 100
CCN(CC)CC1CCCCN1CC(=O)N1c2cc(Cl)ccc2NC(=O)CC1C (stereo not given) | > 100 | > 100 | > 100 | > 100 | > 100 | > 100 | – | > 100 | > 100 | > 100 | > 100 | > 100 | > 100 | –
C/C(=C1/N=C(c2cc([N+](=O)[O-])ccc2Cl)N(c2ccc(Br)cc2)C1=O)c1ccc(N(CCC#N)CCC#N)cc1C | > 100 | 97 | 72.1 | 29.5 | > 100 | > 100 | > 100 | > 100 | > 100 | > 100 | > 100 | 42.1 | > 100 | –
CCOC(=O)/C(Br)=C1\OC(=O)c2ccccc2-c2ccccc21 | > 100 | 49.9 | > 100 | > 100 | > 100 | > 100 | > 100 | > 100 | > 100 | > 100 | > 100 | 56.7 | > 100 | –
Cc1ccc(S(=O)(=O)NC(=O)Nc2c(S(N)(=O)=O)cc(S(N)(=O)=O)c(Cl)c2Cl)cc1 | > 100 | – | > 100 | > 100 | > 100 | > 100 | > 100 | > 100 | > 100 | > 100 | – | > 100 | > 100 | –
CCC(=O)OC1CCn2c1nc1c2C(=O)C(C)=C(NC(C)=O)C1=O (stereo not given) | 11.9 | 11.6 | 5.13 | 3.21 | 3.39 | 3.2 | 4.53 | 3.76 | 11.4 | 3.19 | 10.3 | 5.66 | 3.15 | –
N#C/C(=C\c1ccc(O)c(O)c1)c1c(C#N)c(N)nn1-c1ccccc1 | 21.1 | 61.1 | 26.4 | 19.6 | > 100 | > 100 | 47.7 | > 100 | 36.5 | 39.4 | > 100 | – | > 100 | –
CC(=O)c1ccc(N2C(=O)C3c4[nH]c5ccccc5c4C4CCC(C(C)(C)C)CC4C3C2=O)cc1 (stereo not given) | 34.3 | 29.1 | 35.8 | 30.7 | – | 36.7 | 88.9 | 83.2 | > 100 | 32.8 | 94.7 | 70.9 | > 100 | –
COC1(OC)CC2C(=O)N(Cc3ccccc3)C1C(S(=O)(=O)c1ccccc1)C2C(C)S(=O)(=O)c1ccccc1 (stereo not given) | > 100 | > 100 | > 100 | > 100 | > 100 | > 100 | > 100 | > 100 | > 100 | > 100 | – | > 100 | > 100 | –
CCOC(=O)NN(C(=O)OCC)c1ccc(N=Nc2ccc(OC)cc2)n1C | 97.9 | 41.3 | 83.6 | 34.4 | > 100 | – | > 100 | – | > 100 | > 100 | 46 | – | 56.1 | –
COC(=O)C(C(=O)C(=O)Nc1ccc(C)cc1)c1nc2ccc([N+](=O)[O-])cc2[nH]c1=O (stereo not given) | > 100 | > 100 | > 100 | > 100 | > 100 | > 100 | > 100 | > 100 | > 100 | > 100 | > 100 | > 100 | > 100 | –
c1ccc2c(c1)nnn2CNc1ccc(N2CCCCC2)cc1 | > 100 | > 100 | > 100 | > 100 | – | > 100 | > 100 | > 100 | > 100 | > 100 | > 100 | > 100 | > 100 | –
O=C(Nc1cccc(C(F)(F)F)c1)C(=O)C(C(=O)c1ccc(Cl)c(Cl)c1)C1OC(=O)c2ccccc21 (stereo not given) | > 100 | > 100 | > 100 | 34.7 | > 100 | > 100 | – | – | > 100 | > 100 | 92.3 | > 100 | > 100 | –

From PubChem BioAssay (NCI)
